Results reported in ChEMBL document CHEMBL1155823, “The effect of 5-alkyl modification on the biological activity of pyrrolo[2,3-d]pyrimidine containing classical and nonclassical antifolates as inhibitors of dihydrofolate reductase and as antitumor and/or antiopportunistic infection agents” (J Med Chem, 2008).

Columns and labels:
[1] = target: T1, Dihydrofolate reductase (Pneumocystis carinii, UniProt P16184)
T1 sequence (P16184 whole entry): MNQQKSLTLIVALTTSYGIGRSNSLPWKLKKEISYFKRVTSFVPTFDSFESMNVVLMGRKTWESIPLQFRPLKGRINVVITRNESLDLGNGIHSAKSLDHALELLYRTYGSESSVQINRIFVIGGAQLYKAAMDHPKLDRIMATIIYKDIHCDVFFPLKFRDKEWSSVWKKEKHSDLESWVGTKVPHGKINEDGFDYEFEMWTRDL
Description: (§1) Inhibition of Pneumocystis carinii DHFR using dihydrofolic acid substrate and NADPH cofactor

[2] = target: T2, Dihydrofolate reductase (Rattus norvegicus, UniProt Q920D2)
T2 sequence (Q920D2 whole entry): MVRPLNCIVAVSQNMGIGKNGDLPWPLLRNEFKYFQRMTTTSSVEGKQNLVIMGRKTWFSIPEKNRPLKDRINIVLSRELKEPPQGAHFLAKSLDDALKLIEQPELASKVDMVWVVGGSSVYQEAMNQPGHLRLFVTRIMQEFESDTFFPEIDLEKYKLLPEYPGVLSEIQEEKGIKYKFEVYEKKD

[3] = target: T3, Dihydrofolate reductase (Homo sapiens) (UniProt P00374); test: Inhibition of human dihydrofolate reductase at >[…] uM
T3 sequence (whole entry): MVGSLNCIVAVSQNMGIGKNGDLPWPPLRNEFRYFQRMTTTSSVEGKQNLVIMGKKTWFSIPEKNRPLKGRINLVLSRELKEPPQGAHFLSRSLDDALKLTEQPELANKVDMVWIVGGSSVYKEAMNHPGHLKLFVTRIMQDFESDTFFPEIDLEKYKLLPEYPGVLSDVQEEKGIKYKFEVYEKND

[4] = target: Thymidylate synthase (Escherichia coli, UniProt C3SWJ7); test: Inhibition of Escherichia coli thymidylate synthase
[5] = target: T4, Bifunctional dihydrofolate reductase-thymidylate synthase (Toxoplasma gondii, UniProt Q07422); test: Inhibition of Toxoplasma gondii thymidylate synthase
T4 sequence (Q07422 whole entry): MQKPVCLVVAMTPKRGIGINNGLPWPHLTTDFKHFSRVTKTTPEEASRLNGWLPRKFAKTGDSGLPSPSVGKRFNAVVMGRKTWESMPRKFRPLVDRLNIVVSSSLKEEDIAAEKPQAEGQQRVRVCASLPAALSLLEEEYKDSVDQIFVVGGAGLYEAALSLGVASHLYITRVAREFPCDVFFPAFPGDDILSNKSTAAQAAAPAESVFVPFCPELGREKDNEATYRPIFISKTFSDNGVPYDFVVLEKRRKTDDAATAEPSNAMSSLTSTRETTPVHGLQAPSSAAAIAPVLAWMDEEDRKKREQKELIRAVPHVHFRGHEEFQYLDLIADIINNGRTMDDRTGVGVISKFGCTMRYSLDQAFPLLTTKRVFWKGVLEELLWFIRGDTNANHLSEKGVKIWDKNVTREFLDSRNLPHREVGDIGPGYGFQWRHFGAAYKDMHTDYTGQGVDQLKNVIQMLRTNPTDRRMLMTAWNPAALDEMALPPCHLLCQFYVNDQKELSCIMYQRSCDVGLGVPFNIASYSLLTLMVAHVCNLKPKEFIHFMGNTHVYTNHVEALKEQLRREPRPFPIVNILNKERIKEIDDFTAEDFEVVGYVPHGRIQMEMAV

[6] = target: T5, Dihydrofolate reductase (Homo sapiens, UniProt P00374)
T5 sequence (P00374 whole entry): T3 sequence (whole entry)

[7] = target: T2, Dihydrofolate reductase; remark: listed apart in the source
[8] = target: T4, Bifunctional dihydrofolate reductase-thymidylate synthase; test: Inhibition of Toxoplasma gondii dihydrofolate reductase
[9] = target: Dihydrofolate reductase (Pneumocystis carinii) (UniProt P16184); test: Inhibition of Pneumocystis carinii DHFR at 22 uM using dihydrofolic acid substrate and NADPH cofactor
[10] = target: T6, Thymidylate synthase (Homo sapiens, UniProt P04818); test: Inhibition of human thymidylate synthase
Target sequence in this assay (P04818 whole entry): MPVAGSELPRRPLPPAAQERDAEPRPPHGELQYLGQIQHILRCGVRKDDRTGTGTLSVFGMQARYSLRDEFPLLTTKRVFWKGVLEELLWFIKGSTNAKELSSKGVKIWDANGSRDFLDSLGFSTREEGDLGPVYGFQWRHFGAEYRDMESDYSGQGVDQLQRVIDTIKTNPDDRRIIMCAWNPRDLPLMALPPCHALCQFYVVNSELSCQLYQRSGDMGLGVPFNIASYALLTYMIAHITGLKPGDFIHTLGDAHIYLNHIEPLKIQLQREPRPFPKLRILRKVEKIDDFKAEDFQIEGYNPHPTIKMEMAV

[11] = target: Thymidylate synthase (Escherichia coli) (UniProt C3SWJ7); test: Inhibition of Escherichia coli thymidylate synthase at >[…] uM
[12] = target: T6, Thymidylate synthase; test: Inhibition of human thymidylate synthase at >[…] uM
Target sequence in this assay (P04818 2-313 limits assumed): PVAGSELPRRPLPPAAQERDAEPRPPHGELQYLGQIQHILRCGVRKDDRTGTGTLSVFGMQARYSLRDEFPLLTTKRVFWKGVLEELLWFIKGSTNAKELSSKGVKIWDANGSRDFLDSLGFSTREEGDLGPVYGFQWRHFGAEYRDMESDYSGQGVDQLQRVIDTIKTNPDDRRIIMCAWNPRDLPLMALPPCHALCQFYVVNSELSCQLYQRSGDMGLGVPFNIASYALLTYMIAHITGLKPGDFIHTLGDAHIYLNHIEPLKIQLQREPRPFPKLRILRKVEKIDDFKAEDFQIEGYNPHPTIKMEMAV

[13] = target: T1, Dihydrofolate reductase; remark: listed apart in the source
Description: as §1

[14] = target: T3, Dihydrofolate reductase (Homo sapiens); test: Inhibition of human dihydrofolate reductase at >28 uM
[15] = target: T7, Bifunctional dihydrofolate reductase-thymidylate synthase (Toxoplasma gondii) (UniProt Q07422); test: Inhibition of Toxoplasma gondii thymidylate synthase at >[…] uM
T7 sequence (whole entry): T4 sequence (Q07422 whole entry)

[16] = target: T6, Thymidylate synthase; test: Inhibition of human thymidylate synthase at >23 uM
Target sequence in this assay (P04818 2-313 limits assumed): as above

[17] = target: Dihydrofolate reductase (Pneumocystis carinii) (UniProt P16184); test: Inhibition of Pneumocystis carinii DHFR at […] using dihydrofolic acid substrate and NADPH cofactor
[18] = target: T3, Dihydrofolate reductase (Homo sapiens); test: Inhibition of human dihydrofolate reductase at >30 uM
[19] = target: T6, Thymidylate synthase; test: Inhibition of human thymidylate synthase at >14 uM
Target sequence in this assay (P04818 2-313 limits assumed): as above

[20] = target: Thymidylate synthase (Escherichia coli) (UniProt C3SWJ7); test: Inhibition of Escherichia coli thymidylate synthase at >14 uM
[21] = system: 786-0; test: cells; details: Homo sapiens
[22] = system: SW-620; test: cells; details: Homo sapiens
Description: Cytotoxicity against human SW620 cells

[23] = system: PC-3; test: cells; details: Homo sapiens
Description: Cytotoxicity against human PC3 cells

[24] = cells; details: Homo sapiens, HL-60
Description: Cytotoxicity against human HL60(TB) cells

[25] = system: SF-268; test: cells; details: Homo sapiens
Description: Cytotoxicity against human SF268 cells

[26] = system: ACHN; test: cells; details: Homo sapiens
Description: Cytotoxicity against human ACHN cells

[27] = system: NCI-H460; test: cells; details: Homo sapiens
Description: Cytotoxicity against human NCI-H460 cells

[28] = system: CAKI-1; test: cells; details: Homo sapiens
Description: Cytotoxicity against human CAKI1 cells

[29] = system: MOLT-4; test: cells; details: Homo sapiens
Description: Cytotoxicity against human MOLT4 cells

[30] = system: LOX IMVI; test: cells; details: Homo sapiens
Description: Cytotoxicity against human LOXIMVI cells

[31] = system: MCF7; test: cells; details: Homo sapiens
Description: Cytotoxicity against human MCF7 cells

[32] = system: K562; test: cells; details: Homo sapiens
Description: Cytotoxicity against human K562 cells

[33] = system: HT-29; test: cells; details: Homo sapiens
Description: Cytotoxicity against human HT29 cells

Chain of Thymidylate synthase (Escherichia coli) (C3SWJ7 1-264): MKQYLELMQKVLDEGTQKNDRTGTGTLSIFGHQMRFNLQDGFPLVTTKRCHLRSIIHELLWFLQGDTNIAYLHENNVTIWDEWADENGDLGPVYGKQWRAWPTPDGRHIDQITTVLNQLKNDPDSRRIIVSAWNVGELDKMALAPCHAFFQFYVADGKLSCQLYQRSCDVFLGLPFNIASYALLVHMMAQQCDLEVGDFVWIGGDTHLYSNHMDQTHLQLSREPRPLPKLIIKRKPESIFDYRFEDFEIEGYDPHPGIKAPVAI
Chain of Thymidylate synthase (Escherichia coli, UniProt C3SWJ7) (C3SWJ7 whole entry): as the sequence (C3SWJ7 1-264) above

| SMILES | IC50 [4] | IC50 [5] | IC50 [6] | IC50 [7] | IC50 [8] | IC50 [10] | inhibition [11] | inhibition [12] | IC50 [13] | inhibition [15] | also measured |
| --- | --- | --- | --- | --- | --- | --- | --- | --- | --- | --- | --- |
| CCc1c(Sc2ccccc2)[nH]c2nc(N)nc(N)c12 |  |  |  |  |  |  |  |  |  |  | IC50 [1]: 21.8 µM; IC50 [2]: 5.6 µM |
| CC(C)c1c(Sc2c(Cl)cccc2Cl)[nH]c2nc(N)nc(N)c12 | > 2.2 µM | > 2200 nM | > 26 µM | 2.4 µM | 520 nM | > 22 µM |  |  |  |  | inhibition [3]: 37%; IC50 [1]: 22 µM; inhibition [9]: 14% |
| COc1ccc(Sc2[nH]c3nc(N)nc(N)c3c2C(C)C)cc1 | > 2.5 µM | > 2500 nM | 30 µM | 1.9 µM | 600 nM | > 25 µM | 0% |  |  |  |  |
| CCc1c(Sc2cc(OC)ccc2OC)[nH]c2nc(N)nc(N)c12 |  |  |  |  |  |  |  |  |  |  | IC50 [1]: 6.04 µM; IC50 [2]: 4.05 µM |
| CCCc1c(Sc2ccc(OC)c(OC)c2)[nH]c2nc(N)nc(N)c12 | > 11 µM | > 11000 nM | > 26 µM | 3.45 µM | 1000 nM | > 11 µM | 0% | 0% | 8.45 µM |  | inhibition [3]: 35% |
| CCCc1c(Sc2c(C)cccc2C)[nH]c2nc(N)nc(N)c12 | > 24 µM |  | 3 µM | 2.43 µM |  | > 24 µM |  |  | 5.32 µM |  |  |
| CCCc1c(Sc2c(Cl)cccc2Cl)[nH]c2nc(N)nc(N)c12 | > 22 µM |  | 2.6 µM | 5.95 µM |  | > 22 µM | 0% |  | 5.35 µM |  |  |
| COc1ccc(OC)c(Sc2[nH]c3nc(N)nc(N)c3c2C(C)C)c1 | > 2.3 µM | > 2300 nM | > 28 µM | 50.3 µM | 1400 nM | > 23 µM | 0% |  | 35.6 µM | 0% | inhibition [14]: 0%; inhibition [16]: 0% |
| CCCc1c(Sc2ccc3ccccc3c2)[nH]c2nc(N)nc(N)c12 | > 12 µM | > 15000 nM | > 15 µM | 3.8 µM | 150 nM | > 12 µM |  | 0% |  |  | inhibition [3]: 30%; inhibition [17]: 16%; IC50 [1]: 3.5 µM |
| Cc1cccc(C)c1Sc1[nH]c2nc(N)nc(N)c2c1C(C)C | > 13 µM | > 13000 nM | > 30 µM | 14.8 µM | 300 nM | > 13 µM | 0% |  |  | 0% | inhibition [18]: 10% |
| CC(C)c1c(Sc2ccc3ccccc3c2)[nH]c2nc(N)nc(N)c12 | > 2.4 µM | > 2400 nM | > 29 µM | 2.1 µM | 1500 nM | > 24 µM | 0% | 39% | 7.1 µM |  |  |
| COc1ccc(Sc2[nH]c3nc(N)nc(N)c3c2C(C)C)cc1OC | > 2.3 µM | > 2300 nM | 27 µM | 4.6 µM | 2700 nM | > 23 µM | 0% |  | 28.2 µM | 0% | inhibition [16]: 0% |
| CCCc1c(Sc2ccc(OC)cc2)[nH]c2nc(N)nc(N)c12 | > 13 µM | > 13000 nM | > 30 µM | 1.25 µM | 230 nM | > 13 µM | 0% |  | 4.21 µM | 12% | inhibition [18]: 15% |
| CCCc1c(Sc2cc(OC)ccc2OC)[nH]c2nc(N)nc(N)c12 | > 12 µM |  | > 28 µM | 8.9 µM |  |  |  | 0% | 10.4 µM | 0% | inhibition [14]: 13% |
| CCCc1c(Sc2ccccc2)[nH]c2nc(N)nc(N)c12 | > 14 µM | > 1400 nM | 33 µM |  | 120 nM | > 14 µM |  |  | 4.21 µM |  | inhibition [19]: 0%; inhibition [20]: 0% |
| COc1ccc(OC)c(Cc2sc3nc(N)nc(N)c3c2C)c1 |  |  |  |  | 70 nM |  |  |  |  |  |  |
| CC(C)c1c(Sc2cccc3ccccc23)[nH]c2nc(N)nc(N)c12 | > 12 µM | > 12000 nM | > 29 µM | 0.91 µM | 120 nM | > 12 µM |  | 0% | 0.68 µM | 0% |  |
| CCCc1c(Sc2ccc(C(=O)N[C@@H](CCC(=O)O)C(=O)O)cc2)[nH]c2nc(N)nc(N)c12 |  |  |  | 0.06 µM |  |  |  |  | 0.00311 µM |  | GI50 [21]: 12.8 nM; GI50 [22]: 1210 nM; GI50 [23]: > 100 µM; GI50 [24]: 1280 nM; GI50 [25]: 1610 nM; GI50 [26]: 15.2 µM; GI50 [27]: 267 nM; GI50 [28]: 376 nM; GI50 [29]: 19.4 µM; GI50 [30]: < 10 nM; GI50 [31]: 164 nM; GI50 [32]: 952 nM; GI50 [33]: 9.58 µM |
| CC(C)c1c(Sc2ccc(Cl)c(Cl)c2)[nH]c2nc(N)nc(N)c12 | > 2.3 µM | > 2300 nM | > 27 µM | 13.5 µM | 1400 nM | > 23 µM | 0% |  | 10.9 µM | 0% | inhibition [3]: 0%; inhibition [16]: 14% |
| CCCc1c(Sc2cccc3ccccc23)[nH]c2nc(N)nc(N)c12 | > 12 µM | > 12000 nM | > 29 µM | 6.5 µM | 58 nM | > 12 µM |  | 0% | 8.6 µM | 16% |  |
| CC(C)c1c(Sc2ccccc2)[nH]c2nc(N)nc(N)c12 | > 2.7 µM | > 2700 nM | 16 µM | 2 µM | 64 nM | > 27 µM | 0% | 0% | 11.2 µM | 0% |  |
